Reference: patent publication US8461328B2, “Tricyclic heterocyclic compounds, compositions and methods of use thereof” (Genentech, Inc., priority 2010, dated 2013)

What was measured:
Format in all cases: biochemical
JAK1 = target: T1, JAK1 (Homo sapiens, UniProt P23458); assay: JAK1 inhibition (Table 4); conditions: read-out: JAK1 Ki
T1 construct: made in house; host or cells: SF9 insect cells (baculovirus)

JAK2 = target: T2, JAK2 (Homo sapiens, UniProt O60674); assay: JAK2 inhibition (Table 4); conditions: read-out: JAK2 Ki
T2 construct: made in house; host or cells: SF9 insect cells (baculovirus)
T2 sequence (O60674 812-1132): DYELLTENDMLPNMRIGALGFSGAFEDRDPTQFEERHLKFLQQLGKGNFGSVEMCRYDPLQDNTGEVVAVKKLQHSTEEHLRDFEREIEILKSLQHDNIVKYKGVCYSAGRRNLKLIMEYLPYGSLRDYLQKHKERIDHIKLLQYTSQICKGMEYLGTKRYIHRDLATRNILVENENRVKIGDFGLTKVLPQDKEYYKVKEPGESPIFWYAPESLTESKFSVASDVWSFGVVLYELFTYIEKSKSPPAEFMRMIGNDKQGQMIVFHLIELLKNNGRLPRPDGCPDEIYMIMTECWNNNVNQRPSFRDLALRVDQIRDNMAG

JAK3 = target: T3, JAK3 (Homo sapiens, UniProt P52333); assay: JAK3 inhibition (Table 4); conditions: read-out: JAK3 Ki
T3 construct: made in house; host or cells: SF9 insect cells (baculovirus)
T3 sequence (P52333 783-1124): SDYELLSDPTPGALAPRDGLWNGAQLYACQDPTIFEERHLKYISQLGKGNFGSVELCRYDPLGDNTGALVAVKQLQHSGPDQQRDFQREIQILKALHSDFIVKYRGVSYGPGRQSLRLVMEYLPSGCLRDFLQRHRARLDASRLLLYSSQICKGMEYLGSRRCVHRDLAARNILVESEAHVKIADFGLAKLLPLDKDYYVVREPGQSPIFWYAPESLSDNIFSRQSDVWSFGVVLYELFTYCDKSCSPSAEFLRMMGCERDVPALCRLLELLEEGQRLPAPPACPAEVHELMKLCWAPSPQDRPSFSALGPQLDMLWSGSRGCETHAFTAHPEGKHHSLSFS

TYK2 = target: T4, TYK2 (Homo sapiens, UniProt P29597); assay: TYK2 inhibition (Table 4)
T4 construct: made in house; host or cells: SF9 insect cells (baculovirus)
T4 sequence (P29597 873-1187): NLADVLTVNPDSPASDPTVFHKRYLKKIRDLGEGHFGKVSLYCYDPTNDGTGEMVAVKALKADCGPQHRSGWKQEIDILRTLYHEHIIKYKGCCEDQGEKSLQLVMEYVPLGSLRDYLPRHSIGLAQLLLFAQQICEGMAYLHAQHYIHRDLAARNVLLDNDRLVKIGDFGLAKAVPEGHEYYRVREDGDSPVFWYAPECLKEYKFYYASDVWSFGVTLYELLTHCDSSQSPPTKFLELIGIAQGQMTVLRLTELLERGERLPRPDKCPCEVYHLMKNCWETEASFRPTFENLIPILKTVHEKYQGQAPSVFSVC

T1 sequence (P23458 852-1154): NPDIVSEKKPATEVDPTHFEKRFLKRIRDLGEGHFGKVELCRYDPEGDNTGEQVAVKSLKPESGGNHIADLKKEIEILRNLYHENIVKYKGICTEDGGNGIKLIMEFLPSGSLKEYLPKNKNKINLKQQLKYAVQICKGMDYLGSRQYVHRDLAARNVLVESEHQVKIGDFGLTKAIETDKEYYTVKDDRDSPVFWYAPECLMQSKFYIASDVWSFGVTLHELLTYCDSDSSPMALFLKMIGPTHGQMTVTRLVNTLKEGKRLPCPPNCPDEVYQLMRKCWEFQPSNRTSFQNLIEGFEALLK

SMILES	Ki (JAK1)	Ki (JAK2)	Ki (JAK3)	Ki (TYK2)
CS(=O)(=O)N1CC[C@@H](n2cnc3cnc4[nH]ccc4c32)C1 [Example 190, 1-((R)-1-Methanesulfonyl-pyrrolidin-3-yl)-1,6-dihydro-1,2,3,5,6-tetraaza-as-indacene]	62.7 nM	67.4 nM	59.2 nM	114 nM
c1cc2c(ncc3ncn(C4CCc5[nH]ncc5C4)c32)[nH]1 (centres unmarked) [Example 198, 1-(4,5,6,7-Tetrahydro-1H-indazol-5-yl)-1,6-dihydro-1,2,3,5,6-tetraaza-as-indacene]	6.38 nM	10.2 nM	25.7 nM	41.4 nM
CC(=O)NCc1nc2cnc3[nH]ccc3c2n1C1CCNCC1 [Example 207, N-(1-Piperidin-4-yl-1,6-dihydro-1,2,3,5,6-tetraaza-as-indacen-2-ylmethyl)-acetamide]	78.1 nM	1870 nM	3010 nM	1210 nM
CC(C)N[C@H]1CC[C@H](n2cnc3cnc4[nH]ccc4c32)CC1 [Example 214, Isopropyl-[4-(6H-1,2,3,5,6-tetraaza-as-indacen-1-yl)-cyclohexyl]-amine]	5.64 nM	43.9 nM	303 nM	82.5 nM
CC(C)CC(=O)N[C@H]1CC[C@H](n2cnc3cnc4[nH]ccc4c32)CC1 [Example 215, 3-Methyl-N-[4-(6H-1,2,3,5,6-tetraaza-as-indacen-1-yl)-cyclohexyl]-butyramide]	1.89 nM	7.88 nM	55.9 nM	92.7 nM
O=C(N[C@H]1CC[C@H](n2cnc3cnc4[nH]ccc4c32)CC1)c1ccccc1 [Example 218, N-[4-(6H-1,3,5,6-Tetraaza-as-indacen-1-yl)-cyclohexyl]-benzamide]	6.79 nM	6.07 nM	76.4 nM	33.9 nM
O=C(CC1CC1)N1CCC[C@@H](n2cnc3cnc4[nH]ccc4c32)C1 [Example 220, 2-Cyclopropyl-1-[(R)-3-(6H-1,3,5,6-tetraaza-as-indacen-1-yl)-piperidin-1-yl]-ethanone]	3.31 nM	7.43 nM	28.3 nM	29.3 nM
O=C(Cc1ccccc1)N1CCC[C@@H](n2cnc3cnc4[nH]ccc4c32)C1 [Example 222, 2-Phenyl-1-[(R)-3-(6H-1,3,5,6-tetraaza-as-indacen-1-yl)-piperidin-1-yl]-ethanone]	13.8 nM	29.1 nM	48.1 nM	555 nM
O=C(CN1CCC[C@@H](n2cnc3cnc4[nH]ccc4c32)C1)c1ccccc1 [Example 225, 1-Phenyl-2-[(R)-3-(6H-1,3,5,6-tetraaza-as-indacen-1-yl)-piperidin-1-yl]-ethanone]	59.6 nM	127 nM	118 nM	817 nM
CC1(C)CC1C(=O)N1CCC[C@@H](n2cnc3cnc4[nH]ccc4c32)C1 (stereo partly drawn) [Example 226, (2,2-Dimethyl-cyclopropyl)-[(R)-3-(6H-1,3,5,6-tetraaza-as-indacen-1-yl)-piperidin-1-yl]-methanone]	16.2 nM	18.1 nM	78.5 nM	82.1 nM
CC1(C(=O)N2CCC[C@@H](n3cnc4cnc5[nH]ccc5c43)C2)CC1 [Example 227, (1-Methyl-cyclopropyl)-[(R)-3-(6H-1,3,5,6-tetraaza-as-indacen-1-yl)-piperidin-1-yl]-methanone]	6.41 nM	3.16 nM	83 nM	12.5 nM
O=C(N1CCC[C@@H](n2cnc3cnc4[nH]ccc4c32)C1)C1(C(F)(F)F)CC1 [Example 228, [(R)-3-(6H-1,3,5,6-tetraaza-as-indacen-1-yl)-piperidin-1-yl]-(1-trifluoromethyl-cyclopropyl)-methanone]	15.8 nM	5.99 nM	118 nM	43.4 nM

Second part, the molecule after the results:

Ki (JAK1)	Ki (JAK2)	Ki (JAK3)	Ki (TYK2)	SMILES
4.87 nM	17.6 nM	192 nM	169 nM	N#Cc1ccc(CN2CC[C@@H](n3cnc4cnc5[nH]ccc5c43)C2)cc1 [Example 191, 4-[(R)-3-(6H-1,2,3,5,6-Tetraaza-as-indacen-1-yl)-pyrrolidin-1-ylmethyl]-benzonitrile]
24.5 nM	51.3 nM	401 nM	388 nM	COCC(=O)N1CCC(n2cnc3cnc4[nH]ccc4c32)CC1 [Example 192, 2-Methoxy-1-[4-(6H-1,2,3,5,6-tetraaza-as-indacen-1-yl)-piperidin-1-yl]-ethanone]
3.91 nM	5.32 nM	282 nM	30.7 nM	O=S(=O)(CCO)N1CCC(n2cnc3cnc4[nH]ccc4c32)CC1 [Example 194, 2-[4-(6H-1,2,3,5,6-Tetraaza-as-indacen-1-yl)-piperidine-1-sulfonyl]-ethanol]
0.66 nM	1.13 nM	27.6 nM	2.16 nM	N#CCC1(N2CCC(n3cnc4cnc5[nH]ccc5c43)CC2)COC1 [Example 195, {3-[4-(6H-1,2,3,5,6-Tetraaza-as-indacen-1-yl)-piperidin-1-yl]-oxetan-3-yl}-acetonitrile]
2.49 nM	67.5 nM	110 nM	27.6 nM	C[C@@H](O)c1nc2cnc3[nH]ccc3c2n1[C@H]1CCCOC1 [Example 199, (R)-1-[(S)-1-(Tetrahydro-pyran-3-yl)-1,6-dihydro-1,2,3,5,6-tetraaza-as-indacen-2-yl]-ethanol]
7.28 nM	25 nM	12.2 nM	488 nM	c1ccc(CN2CCC(n3c(Cn4cccn4)nc4cnc5[nH]ccc5c43)CC2)cc1 [Example 201, 1-(1-Benzyl-piperidin-4-yl)-2-pyrazol-1-ylmethyl-1,6-dihydro-1,2,3,5,6-tetraaza-as-indacene]
19.6 nM	145 nM	104 nM	258 nM	CN(Cc1nc2cnc3[nH]ccc3c2n1C1CCN(Cc2ccccc2)CC1)S(C)(=O)=O [Example 203, N-[1-(1-Benzyl-piperidin-4-yl)-1,6-dihydro-1,2,3,5,6-tetraaza-as-indacen-2-ylmethyl]-N-methyl-methanesulfonamide]
91.9 nM	1540 nM	862 nM	1470 nM	c1cnn(Cc2nc3cnc4[nH]ccc4c3n2C2CCNCC2)c1 [Example 204, 1-Piperidin-4-yl-2-pyrazol-1-ylmethyl-1,6-dihydro-1,2,3,5,6-tetraaza-as-indacene]
6.42 nM	23.3 nM	32.6 nM	86.5 nM	N#CCCN1CCC(n2c(Cn3cccn3)nc3cnc4[nH]ccc4c32)CC1 [Example 205, 3-[4-(2-Pyrazol-1-ylmethyl-6H-1,2,3,5,6-tetraaza-as-indacen-1-yl)-piperidin-1-yl]-propionitrile]
2.17 nM	17.6 nM	30.6 nM	66.6 nM	Cn1nccc1C(=O)NCc1nc2cnc3[nH]ccc3c2n1C1CCN(CCC#N)CC1 [Example 209, 2-Methyl-2H-pyrazole-3-carboxylic acid {1-[1-(2-cyano-ethyl)-piperidin-4-yl]-1,6-dihydro-1,2,3,5,6-tetraaza-as-indacen-2-ylmethyl}-amide]
147 nM	642 nM	646 nM	514 nM	Cc1nc2cnc3[nH]ccc3c2n1C1CCS(=O)(=O)CC1 [Example 210, 1-(1,1-Dioxo-hexahydro-1-thiopyran-4-yl)-2-methyl-1,6-dihydro-1,2,3,5,6-tetraaza-as-indacene]
7 nM	22.2 nM	133 nM	61.4 nM	CS(=O)(=O)Nc1ccc(N2CCC(n3cnc4cnc5[nH]ccc5c43)CC2)nc1 [Example 211, N-[4-(6H-1,2,3,5,6-Tetraaza-as-indacen-1-yl)-3,4,5,6-tetrahydro-2H-[1,2]bipyridinyl-5′-yl]-methanesulfonamide]
2.17 nM	3.21 nM	59 nM	11.6 nM	FCCN1CCC(n2cnc3cnc4[nH]ccc4c32)CC1 [Example 212, 1-[1-(2-Fluoro-ethyl)-piperidin-4-yl]-1,6-dihydro-1,2,3,5,6-tetraaza-as-indacene]
3.6 nM	48.7 nM	6.79 nM	608 nM	O=C(Cc1nc2cnc3[nH]ccc3c2n1C1CCN(Cc2ccccc2)CC1)N1CCC(F)(F)CC1 [Example 217, 2-[1-(1-Benzyl-piperidin-4-yl)-1,6-dihydro-1,3,5,6-tetraaza-as-indacen-2-yl)-1-(4,4-difluoro-piperidin-1-yl)-ethanone]
2.52 nM	3.92 nM	8.12 nM	9.37 nM	N#CC1(C(=O)N2CCC[C@@H](n3cnc4cnc5[nH]ccc5c43)C2)CC1 [Example 221, 1-[(R)-3-(6H-1,3,5,6-Tetraaza-as-indacen-1-yl)-piperidine-1-carbonyl]-cyclopropanecarbonitrile]
3.74 nM	24.4 nM	8.11 nM	1470 nM	CC(C)c1nc2cnc3[nH]ccc3c2n1C1CCN(Cc2ccccc2)CC1 [Example 223, 1-(1-Benzyl-piperidin-4-yl)-2-isopropyl-1,6-dihydro-1,3,5,6-tetraaza-as-indacene]
14.2 nM	59.2 nM	20.6 nM	1980 nM	CC(C)Cc1nc2cnc3[nH]ccc3c2n1C1CCN(Cc2ccccc2)CC1 [Example 224, 1-(1-Benzyl-piperidin-4-yl)-2-isobutyl-1,6-dihydro-1,3,5,6-tetraaza-as-indacene]
